# In patent US20250213478A1, “CATIONIC LIPID HAVING DISULFIDE BOND, LIPID MEMBRANE STRUCTURE INCLUDING SAME, NUCLEIC ACID INTRODUCTION AGENT AND PHARMACEUTICAL COMPOSITION CONTAINING ANY ONE OF SAME, METHOD FOR INTRODUCING NUCLEIC ACID INTO CELL OR TARGET CELL, AND METHOD FOR PRODUCING CELLULAR PHARMACEUTICAL” (NOF Corporation, priority 2022, published 2025):
# How the values were obtained:
# [1] = system: HeLa cells; experiment: Evaluation of in vitro gene expression in HeLa cell (luciferase mRNA-encapsulating LNP); format: cell-based, human; settings: for cumulative luciferase luminescence intensity over 24 hr: luciferase mRNA 0.4 μg per dish, LNP cationic lipid:DOPC:Chol:DMG-PEG2k=55:5:40:1; for gene expression activity compared to Comparative Example: result in words
# Description: (§1) LNP encapsulating mRNA that expresses luciferase (cationic lipid:DOPC:Chol:DMG-PEG2k=55:5:40:1 (molar ratio)) was prepared by the method described in [Experimental Example 2], 1.
# HeLa cells, which are human cervical cancer cells, were seeded in a 3.5 cm dish at 5.0×10^4 cells/2 mL/Dish 24 hours before transfection. After 24 hours, the medium was exchanged with a culture medium (D-MEM) containing 0.1 mM D-luciferin. Prepared mRNA-encapsulating LNP was diluted with PBS such that the concentration of mRNA was about 8 μg/mL. The diluted mRNA-encapsulating LNP solution (about 50 μL, mRNA: 0.4 μg) was added to the 3.5 cm dish and set in an incubator luminometer KronosDio. The luminescence intensity of luciferase was measured for 2 min every one hour. The cumulative luciferase luminescence intensity for 24 hr was calculated from the obtained time change of expression. For example, “1.0E+06” means “1.0×10^6”. In Comparative Example, the cationic lipid described in the aforementioned Table 3 were used.
# [2] = system: BALB/c mouse; experiment: Evaluation of in vivo gene expression (luciferase mRNA-encapsulating LNP, IVIS of isolated organs); settings: for relative value based on Comparative Example (amount of luminescence in spleen): relative to O-Ph-P4C2 LNP = 1.00; for amount of luminescence in each organ: heart / amount of luminescence in each organ: kidney / amount of luminescence in each organ: liver / amount of luminescence in each organ: lung / amount of luminescence in each organ: spleen: 4.5 hr + 15 min after administration; for amount of luminescence in each organ: spleen: spleen (Table 7)
# Description: as §1
# The prepared each mRNA-encapsulating LNP dispersion was administered from the tail vein of BALB/c mouse (male, 5-week-old). The dose of mRNA was set to 0.05 mg per 1 kg body weight of the mouse, and the dose of the mRNA-encapsulating LNP dispersion was set to 10 μL per 1 g body weight of the mouse. After 4.5 hr from the administration of the mRNA-encapsulating LNP dispersion, a PBS solution of D-luciferin potassium was administered into the abdominal cavity of the mouse. The dose of D-luciferin potassium was set to 3 mg per mouse, and the dose of the PBS solution of D-luciferin potassium was set to 200 μL per mouse. After 15 min from the administration of the PBS solution of D-luciferin potassium, the mouse was euthanized, and the liver, spleen, kidney, heart, and lung were isolated. The luminescence in each organ was quantified using an in vivo imaging system (IVIS) with an exposure of 10 sec. The amount of luminescence in each organ was quantified by image analysis using Live Imaging software attached to IVIS. The amount of luminescence (photons/sec) was calculated from the acquired image and used as an index of gene expression activity. “E+0a” (a: integer) indicated in Table 7 and Table 8 means “10^a”. For example, “1.0E+02” means “1.0×10^2”. In Comparative Example, the cationic lipid described in the aforementioned Table 3 were used.
# [3] = Particle size, PdI and zeta potential of mRNA-encapsulating LNPs (dynamic light scattering); format: physicochemical; settings: mRNA-encapsulating LNP, cationic lipid:DOPC:Chol=55:5:40 + about 1 mol DMG-PEG2k; for PdI / particle size: dynamic light scattering; for zeta potential: physiological pH
# Description: (§2) A 10 mM ethanol solution of cationic lipid, a 5 mM ethanol solution of DOPC, and a 10 mM ethanol solution of Chol were mixed at desired ratio (cationic lipid:DOPC:Chol=55:5:40 (molar ratio)) in an Eppendorf tube to achieve the total lipid amount of 720 nmol. To the obtained mixture was further added DMG-PEG2k (2 mM ethanol solution) in an amount of about 1 mol with respect to the total amount 100 mol of cationic lipid, DOPC, and Chol, and then ethanol was added to prepare an ethanol solution of the lipid (total amount: 360 μL).
# An acidic buffer solution (total amount: 1080 μL) of nucleic acid was prepared by weighing 7.2 μg of mRNA solution (0.6 mg/mL) in a 5 mL tube and adding acidic malate buffer (20 mM, pH 3.0) containing NaCl at a final concentration of 30 mM.
# An acidic buffer solution of nucleic acid and an ethanol solution of lipid were each weighed in a syringe. Using an ultra high-speed nanomedicament producing apparatus NanoAssmblr (manufactured by Precision NanoSystems), LNP was prepared under the conditions of addition rate of acidic buffer solution of nucleic acid: 3 mL/min, addition rate of ethanol solution of lipid: 1 mL/min, and syringe holder temperature: 25° C., and collected in a 15 mL tube. MES buffer (pH 6.5) (3000 μL) was added to the 15 mL tube, the obtained mixture was transferred to Amicon Ultra 4, and ultrafiltration was performed under centrifugation conditions (25° C., 1000 g, 6 min) to concentrate the mixture to about 100 μL. The obtained concentrate was diluted with PBS to 4 mL, and the mixture was concentrated again under centrifugation conditions (25° C., 1000 g, 6 min), and this operation was performed twice. The obtained concentrate was diluted with PBS to a lipid concentration of 2 mM to give a dispersion containing LNP.
# The particle size, PdI (Polydispersity Index), and zeta potential of the mRNA-encapsulating LNP prepared by the method of the above-mentioned 1 were measured by a dynamic light scattering method. In Comparative Example, the cationic lipid described in the aforementioned Table 3 were used.
# [4] = Measurement of Liposomal pKa of LNP (TNS fluorescence); format: physicochemical; settings: LNP without nucleic acid, cationic lipid:DOPC:Chol=52.5:7.5:40 + about 1.5 mol DMG-PEG2k; pH at which relative TNS fluorescence intensity was 50%
# Description: Lipid nanoparticles (LNP) without containing nucleic acid were used for the evaluation of Liposomal pKa.
# as §2, with “(cationic lipid:DOPC:Chol=52.5:7.5:40” for “(cationic lipid:DOPC:Chol=55:5:40”, “about 1.5” for “about 1”
# An acidic malic acid buffer (20 mM, pH 3.0) (1080 μL) containing NaCl at a final concentration of 30 mM and an ethanol solution (360 μL) of lipid were each weighed in a syringe. Using an ultra high-speed nanomedicament producing apparatus NanoAssmblr (manufactured by Precision NanoSystems), LNP was prepared under the conditions of addition rate of acidic buffer solution: 3 mL/min, addition rate of ethanol solution of lipid: 1 mL/min, and syringe holder temperature: 25° C., and collected in a 15 mL tube. MES buffer (pH 6.5) (3000 μL) was added to the 15 mL tube, the obtained mixture was transferred to Amicon Ultra 4, and ultrafiltration was performed under centrifugation conditions (25° C., 1000 g, 6 min) to concentrate the mixture to about 100 μL. The obtained concentrate was diluted with PBS to 4 mL, and the mixture was concentrated again under centrifugation conditions (25° C., 1000 g, 6 min), and this operation was performed twice. The obtained concentrate was diluted with PBS to a lipid concentration of 0.5 mM to give a dispersion containing LNP.
# 20 mM Citrate buffer, sodium phosphate buffer, and tris HCl buffer, each containing NaCl at a final concentration of 150 mM and adjusted to various pHs within the range of pH 3.0 to 10.0, were prepared. TNS (manufactured by Sigma) was diluted with ultrapure water to 0.6 mM. TNS solution (2 μL), dispersions (12 μL) containing LNP prepared in [Experimental Example 1], 1., and buffers adjusted to various pHs (186 μL) were added to a black 96 well plate. The plate was protected from light and shaken at 400 rpm for 10 min. The fluorescence intensity (excitation: 321 nm/emission: 447 nm) was measured using a plate reader (manufactured by TECAN). The relative fluorescence intensity was calculated as a percentage, with the maximum value of the fluorescence intensity in each LNP being 100% and the minimum value being 0%. Furthermore, the pH at which the relative fluorescence intensity was 50% was taken as Liposomal pKa. In Comparative Example, the cationic lipid described in the aforementioned Table 3 were used.
PdI [3],particle size [3] [nm],zeta potential [3] [mV],pKa [4],Compound,cumulative luciferase luminescence intensity over 24 hr [1] [RLU],relative value based on Comparative Example (amount of luminescence in spleen) [2],"amount of luminescence in spleen ([2]; tail vein, mRNA 0.05 mg/kg, spleen (Table 8)) [photons/sec]",gene expression activity compared to Comparative Example [1],"amount of luminescence in each organ: heart ([2]; tail vein, mRNA 0.05 mg/kg) [photons/sec]","amount of luminescence in each organ: kidney ([2]; tail vein, mRNA 0.05 mg/kg) [photons/sec]","amount of luminescence in each organ: liver ([2]; tail vein, mRNA 0.05 mg/kg) [photons/sec]","amount of luminescence in each organ: lung ([2]; tail vein, mRNA 0.05 mg/kg) [photons/sec]","amount of luminescence in each organ: spleen ([2]; tail vein, mRNA 0.05 mg/kg) [photons/sec]"
0.064,73,−1.5,6.3,"CCCCCCCC/C=C\CCCCCCCC(=O)Oc1ccc(CC(=O)OCCC2CCN(CCSSCCN3CCC(CCOC(=O)Cc4ccc(OC(=O)CCCCCCC/C=C\CCCCCCCC)cc4)CC3)CC2)cc1 [Comparative Example, O-Ph-P4C2, reference compound]",1.11E+07,1.00,1.08E+07,,,,,,
0.077,92,6.8,7.8,CCCCCCCCCCCCCCC(CCCCCCCCCCCCCC)C(=O)Oc1ccc(CC(=O)OCCSSCCOC(=O)CCCN(C)C)cc1 [Example 7],2.13E+08,0.37,,superior gene expression activity,6.86E+05,6.35E+05,1.23E+06,8.28E+05,4.03E+06
0.086,94,−10.2,6.3,CCCCCCCCCCCCCCCCC(CCCCCCCCCCCCCCCC)C(=O)Oc1ccc(CC(=O)OCCSSCCOC(=O)C(C)CN(C)C)cc1 (centres unmarked) [Example 13],1.44E+05,0.19,,,1.00E+06,8.00E+05,5.00E+07,8.67E+05,2.00E+06
0.118,116,6.4,7.9,CCCCCCCCCCCCCCCCC(CCCCCCCCCCCCCCCC)C(=O)Oc1ccc(CC(=O)OCCSSCCOC(=O)NCCN(C)C)cc1 [Example 21],1.22E+08,0.05,,superior gene expression activity,3.41E+05,5.83E+05,3.68E+05,6.51E+05,5.86E+05
0.090,96,4.7,7.5,CCCCCCCCCCCCCCCCC(CCCCCCCCCCCCCCCC)C(=O)Oc1ccc(CC(=O)OCCSSCCOC(=O)NCCN(CC)CC)cc1 [Example 22],2.38E+08,0.29,,superior gene expression activity,3.91E+05,4.45E+05,8.31E+06,5.20E+05,3.16E+06
0.160,94,13.8,8.3,CCCCCCCCCCCCCCCCC(CCCCCCCCCCCCCCCC)C(=O)Oc1ccc(CC(=O)OCCSSCCOC(=O)NCCCN(C)C)cc1 [Example 23],2.05E+07,0.04,,superior gene expression activity,,1.53E+05,2.36E+05,5.02E+05,4.45E+05
